This test concerns CD2F1 mice, L1210 leukemia ip, survival T/C. In words: NCI In Vivo Anticancer Drug Screen. Data for tumor model L1210 Leukemia (intraperitoneal) in CD2F1 (CDF1) mice. The settings on record: endpoint: mean survival time, higher = longer survival. In short, it runs like this: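 Ratio T/C, where T is the treated-group value and C the vehicle-dosed control value, from mice implanted with a transplantable tumor.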

[1] abbreviates: dose: 100.0 mg/kg/injection, schedule: Q04DX002 (ip), vehicle: saline.
[2] abbreviates: dose: 200.0 mg/kg/injection, schedule: Q04DX002 (ip), vehicle: saline.
Setting [3] is: dose: 100.0 mg/kg/injection, schedule: Q01DX001 (ip), vehicle: Klucel (hydroxypropylcellulose) (HPC).
The mark [4] stands for this setting: dose: 200.0 mg/kg/injection, schedule: Q01DX001 (ip), vehicle: Klucel (hydroxypropylcellulose) (HPC).
Setting [5] is: dose: 400.0 mg/kg/injection, schedule: Q01DX001 (ip), vehicle: Klucel (hydroxypropylcellulose) (HPC).
Where [6] appears, read: dose: 100.0 mg/kg/injection, schedule: Q01DX001 (ip), vehicle: saline.
Where [7] appears, read: dose: 200.0 mg/kg/injection, schedule: Q01DX001 (ip), vehicle: saline.
The mark [8] stands for this setting: dose: 400.0 mg/kg/injection, schedule: Q01DX001 (ip), vehicle: saline.
The mark [9] stands for this setting: dose: 100.0 mg/kg/injection, schedule: Q01DX009 (ip), vehicle: saline with Tween-80.
Where [10] appears, read: dose: 200.0 mg/kg/injection, schedule: Q01DX009 (ip), vehicle: saline with Tween-80.
Where [11] appears, read: dose: 400.0 mg/kg/injection, schedule: Q01DX009 (ip), vehicle: saline with Tween-80.
Setting [12] is: dose: 100.0 mg/kg/injection, schedule: Q01DX001 (ip), vehicle: saline with Tween-80.
Where [13] appears, read: dose: 200.0 mg/kg/injection, schedule: Q01DX001 (ip), vehicle: saline with Tween-80.
The mark [14] stands for this setting: dose: 400.0 mg/kg/injection, schedule: Q01DX001 (ip), vehicle: saline with Tween-80.

Values joined by “and” are separate entries in the source; they are usually repeats but may differ in a detail not shown here. Equal values may be shown once. Inconclusive results and toxic doses are left out.

On to `Brc1ccc(N=Cc2ccccc2)cc1`, for which the T/C is, setting by setting: under setting [1], 100 % of control; under setting [2], 103 % of control; (dose: 400.0 mg/kg/injection, schedule: Q04DX002 (ip), vehicle: saline) 107 % of control.

With `O=C1Nc2ccccc2C1=O`, the T/C under setting [3] was 96 % of control, the T/C under setting [4] was 102 % of control and the T/C under setting [5] was 101 % of control.

On to `O=C(Nc1ccc(C2=NCCCN2)cc1)c1ccc(NC(=O)c2ccc(C3=NCCCN3)cc2)cc1`, for which the T/C was 95 % of control (dose: 1.0 mg/kg/injection, schedule: Q01DX008 (iv), vehicle: other); 107 % of control (dose: 2.0 mg/kg/injection, schedule: Q01DX008 (iv), vehicle: other); 189 % of control (dose: 4.0 mg/kg/injection, schedule: Q01DX008 (iv), vehicle: other).

Consider `S=P12N3CCN1CCN2CC3`, for which the T/C runs as follows: (dose: 7.7 mg/kg/injection, schedule: Q01DX001 (ip), vehicle: water) 101 % of control; (dose: 10.9 mg/kg/injection, schedule: Q01DX001 (ip), vehicle: water) 95 % of control; (dose: 15.7 mg/kg/injection, schedule: Q01DX001 (ip), vehicle: water) 100 % of control; (dose: 22.4 mg/kg/injection, schedule: Q01DX001 (ip), vehicle: water) 97 % of control; (dose: 32.0 mg/kg/injection, schedule: Q01DX001 (ip), vehicle: water) 100 % of control; (dose: 64.0 mg/kg/injection, schedule: Q01DX001 (ip), vehicle: saline) 95 % of control. Also, under “dose: 128.0 mg/kg/injection, schedule: Q01DX001 (ip), vehicle: saline”, the T/C was 98 % of control.

With `NN1CCCCC1`, the T/C by setting is: under setting [1], 103 % of control; under setting [2], 95 % of control.

With `C=CC[n+]1cc2c3ccccc3c(N)cc2c2ccccc21`, the T/C (dose: 1.56 mg/kg/injection, schedule: Q04DX003 (ip), vehicle: water) was 106 % of control; the T/C (dose: 3.13 mg/kg/injection, schedule: Q04DX003 (ip), vehicle: water) is 108 % of control; the T/C (dose: 6.25 mg/kg/injection, schedule: Q04DX003 (ip), vehicle: water) was 98 % of control.

For the compound `Cc1cccc(-n2cc(C#N)c3c(C)cc(C)nc32)c1`, the T/C is, setting by setting: (dose: 100.0 mg/kg/injection, schedule: Q04DX003 (ip), vehicle: saline) 106 % of control; (dose: 200.0 mg/kg/injection, schedule: Q04DX003 (ip), vehicle: saline) 101 % of control; (dose: 400.0 mg/kg/injection, schedule: Q04DX003 (ip), vehicle: saline) 97 % of control.

Consider `O=C1N(Cc2ccccc2)CCS1(=O)=O`, for which the T/C was 96 % of control (dose: 75.0 mg/kg/injection, schedule: Q01DX001 (ip), vehicle: other) and 106 % of control (dose: 150.0 mg/kg/injection, schedule: Q01DX001 (ip), vehicle: other).

As to `Clc1ccc(-c2nc3ccccc3s2)cc1`, the T/C is, setting by setting: under setting [3], 100 % of control; under setting [4], 95 % of control; under setting [5], 100 % of control.

Regarding `O=C(Nc1ccc(C2=NCCN2)cc1)c1cc(Cl)cc(C(=O)Nc2ccc(C3=NCCN3)cc2)c1`, the T/C is 101 % of control and 104 % of control (dose: 62.5 mg/kg/injection, schedule: Q01DX009 (ip), vehicle: saline); 101 % of control and 103 % of control (dose: 125.0 mg/kg/injection, schedule: Q01DX009 (ip), vehicle: saline); 107 % of control and 108 % of control (dose: 250.0 mg/kg/injection, schedule: Q01DX009 (ip), vehicle: saline); 115 % of control and 110 % of control (dose: 500.0 mg/kg/injection, schedule: Q01DX009 (ip), vehicle: saline).

For `CCOC(=O)C(C)C(C)=O` (stereo not drawn), the T/C was 104 % of control under setting [6], 98 % of control under setting [7] and 101 % of control under setting [8].

With `CCOC(=O)NC1CC(OC(=O)c2ccc(C)cc2)C(COC(=O)c2ccc(C)cc2)O1` (stereo not drawn), the T/C was 95 % of control under setting [9], 92 % of control under setting [10] and 100 % of control under setting [11].

For the compound `COCCNc1ccc([N+](=O)[O-])cc1[N+](=O)[O-]`, the T/C was 92 % of control under setting [12]; 95 % of control under setting [9]; 92 % of control under setting [13]; 93 % of control under setting [10]; 96 % of control under setting [14]; 91 % of control under setting [11].

As to `CNC(=O)c1cccc2ccccc12`, the T/C (dose: 50.0 mg/kg/injection, schedule: Q01DX001 (ip), vehicle: saline) is 103 % of control; the T/C under setting [6] was 100 % of control; the T/C under setting [7] is 97 % of control; the T/C under setting [8] is 95 % of control.

For `O=[N+]([O-])c1ccc2c(c1)CS(=O)(=O)O2`, the T/C under setting [9] is 109 % of control; the T/C (dose: 100.0 mg/kg/injection, schedule: Q04DX003 (ip), vehicle: saline with Tween-80) was 103 % of control; the T/C under setting [10] is 107 % of control; the T/C (dose: 200.0 mg/kg/injection, schedule: Q04DX003 (ip), vehicle: saline with Tween-80) is 100 % of control; the T/C under setting [11] was 107 % of control; the T/C (dose: 400.0 mg/kg/injection, schedule: Q04DX003 (ip), vehicle: saline with Tween-80) is 95 % of control.

Consider `CCOC(=O)C(=CNc1cc(C)ccn1)C(=O)OCC`, for which the T/C under setting [9] is 109 % of control, the T/C under setting [10] was 98 % of control and the T/C under setting [11] was 94 % of control.

As for `C(=C\c1ccccn1)/c1ccccc1`, the T/C was 100 % of control under setting [12]; 94 % of control under setting [9]; 89 % of control under setting [13]; 101 % of control under setting [10]; 92 % of control under setting [14].

For the origin of these results see PubChem BioAssay AID256 (DTP/NCI, 2004).
